Tested on: ELEIN (Eleusine indica)
Assay: Post-emergence application in field trials (Example A)
Format: in vivo
Conditions: A-1 25, B-6 252 g ai/ha, water 400 l/ha
[1] = Table 5.1, ELEIN height 5-20 cm, 21 DAT
[2] = Table 5.6, ELEIN growth stage 14-15, height 9-14 cm, 28 DAT

Compound | % herbicidal activity [1] [%] | % herbicidal activity [2] [%]
CCOC(=O)COc1ccccc1Oc1nc(-n2c(=O)cc(C(F)(F)F)n(C)c2=O)c(F)cc1Cl [A-1, ethyl 2-[2-[[3-chloro-5-fluoro-6-[3-methyl-2,6-dioxo-4-(trifluoromethyl)pyrimidin-1-yl]-2-pyridyl]oxy]phenoxy]acetate] | 57 | 91
CP(=O)(O)CC[C@H](N)C(=O)O.N [B-6, glufosinate-P-ammonium] | 0 | 40

Source: patent US12532889B2, “Herbicidal compositions comprising glufosinate” (BASF SE, priority 2023, dated 2026)
